Reference: BigSolDB 2.1

C[C@H]1[C@H](C)CC[C@]2(C(=O)O)CC[C@]3(C)C(=CC[C@@H]4[C@@]5(C)CC[C@H](O)C(C)(C)[C@@H]5CC[C@]43C)[C@H]12
solubility (mole fraction)
Details | 278.2 K | 283.2 K | 288.2 K | 293.2 K | 298.2 K | 303.2 K | 308.2 K | 313.2 K | 318.2 K
in MIBK | 0.00094 | 0.00104 | 0.00106 | 0.00109 | 0.00127 | 0.00128 | 0.0015 | 0.00169 | 0.00184
in MTBE | 0.00167 | 0.00175 | 0.0021 | 0.00248 | 0.00288 | 0.00305 | 0.00311 | 0.00315 | 0.00338
in n-butanol | 0.00153 | 0.00168 | 0.00226 | 0.00266 | 0.00334 | 0.00387 | 0.00411 | 0.00466 | 0.00504
